Reference: patent publication US20260137809A1, “GENE THERAPY VECTORS FOR TREATMENT OF CANCER” (Siren Biotechnology, Inc., priority 2022, published 2026)

Columns and labels:
X^on induction system = assay: Dose studies with various inducer molecules, AAV-CAG-X^on-eGFP fluorescence (Example 3); assay type: cell-based; settings: cells transduced with 1e^6 vg/cell AAV-CAG-X^on-eGFP; inducer added after 24 hours at 4 concentrations
Experimental: Briefly, cells were seeded in black 96-well plates for 24 hours and transduced with 1e^6 vg/cell AAV-CAG-X^on-eGFP as described in Example 1. After 24 hours, each inducer was added directly into the cell media at 4 different concentrations each. Cells expressing the eGFP payload were visualized by fluorescent live imaging (20× magnification) after induction with branaplam (FIG. 20A) or RG7800 (FIG. 20B). Cells were counter-stained with […] Hoechst to identify nuclei and determine total cell counts for normalization. The number of eGFP-positive cells as well as the green fluorescence intensity was measured for each well and each condition up to 9 hours post-induction to determine the kinetics of the payload expression post-induction (FIGS. 20C-20H).

[1] = tested on: X^on splicing control element; assay: Kinetics of eGFP induction with branaplam and RG7800-HCl, live cell imaging (Example 4); assay type: cell-based; settings: for induced eGFP expression level compared with the constitutive construct: AAV-CAG-X^on-eGFP versus constitutive AAV-CAG-eGFP, inducer at optimal concentrations; for course of eGFP payload expression after induction: AAV-CAG-X^on-eGFP, monitored for 14, 28 or 84 hours
Experimental: Cells were seeded in 96-well plates for 24 hours and transduced with AAV-CAG-X^on-eGFP or constitutive AAV-CAG-eGFP as the positive control, and treated with or without branaplam or RG7800-HCl. Fluorescent eGFP payload expression was monitored for a total of 14 hours (FIGS. 21A-21D) or 28 hours (FIGS. 22A-22D) by live cell imaging.

X^on splicing element = assay: Inducible AAV-GFP / AAV-eGFP expression after the inducer branaplam, live fluorescent imaging (Example 2); assay type: cell-based, human; settings: HEK293-T cells transduced with AAV-CAG-X^on-eGFP, branaplam 125 nM
Description: Adherent human HEK293-T cells were transduced with inducible AAV-GFP, followed by fluorescent imaging for GFP expression pre- and post-administration of an inducer molecule (e.g., branaplam). The data is seen in FIG. 17.
Adherent human HEK293-T cells were transduced with AAV-GFP at varying dosages, followed by administration of an inducer molecule (e.g., branaplam), and monitored for GFP expression over several hours to determine initial expression kinetics at different AAV dosages in vitro. The data is seen in FIG. 19.
In a similar set of experiments, HEK293-T cells were plated in a 96-well plate for 24 hours and transduced with a broad range of multiplicity of infection (MOI) using a constitutively-expressing payload expression construct, AAV-CAG-eGFP, to determine the necessary MOI for detectable eGFP expression prior to advancing to the inducible constructs described in Example 1. MOIs tested ranged from 3E4 to 4E6 vg/cell. Transduction efficacy was assessed by measuring the eGFP payload expression from transduced cells using a fluorescent microscopy imager (FIG. 18). Once an MOI was selected, the inducible AAV-CAG-X^on-eGFP was tested with an inducer molecule, branaplam at 125 nM, 24 hours post-transduction. […] Control cells were transduced with AAV-CAG-X^on-eGFP without the addition of an inducer. […]

[2] = tested on: X^on splicing control element; assay: ON/OFF control of fLuc expression with cycles of branaplam (Example 6); assay type: cell-based, human; settings: HEK293-T, AAV-CAG-X^on-fLuc, MOI 2.5E5 vg/cell
Experimental: HEK293-T cells were transduced with AAV and then branaplam, and after 24 hours of induction with branaplam, supernatants were harvested and assayed for luciferase expression, and the media was replaced with fresh medium without branaplam. Supernatants for the next timepoint were then harvested after 24 hours in the condition without branaplam, and the cycle was repeated (e.g., one or two or more times; FIG. 25A). Briefly, HEK293-T cells were transduced with an MOI of 2.5E5 vg/cell of AAV-CAG-X^on-fLuc (FIG. 25B) for 24 hours, followed by addition of branaplam at 3 different concentrations at hour 24 for an additional 24 hours (“ON”). Supernatants were then harvested for the measurement of fLuc, and media was replaced with fresh media lacking branaplam (“OFF”) for 24 hours. Supernatants were harvested after 24 hours in the OFF state. fLuc luminescent signal was measured for each cycle in sample supernatants at each time point and condition described (FIG. 25C).

[3] = tested on: X^on splicing control element; assay: ON/OFF control of hIFNβ expression with branaplam, ELISA of supernatants (Example 7); assay type: cell-based, human; settings: HEK293-T, AAV-CAG-X^on-hIFNβ, MOI 2.5e^5 vg/cell
Experimental: Briefly, HEK293-T cells were transduced with an MOI of 2.5e^5 vg/cell of AAV-CAG-X^on-hIFNβ or constitutive AAV-CAG-hIFNβ for 24 hours. 24 hours post-transduction with AAV, branaplam was added to the cell media to induce human IFNβ (hIFNβ) expression (“ON”). After 24 hours, media supernatants were harvested for payload measurement and fresh media lacking Branaplam (“OFF”). 24 hours later, media supernatants were harvested for payload detection (FIG. 25A). Amounts of hIFNβ were measured in picograms per milliliter (pg/mL) (FIG. 26A) using an ELISA kit for hIFNβ in supernatants before and after induction with branaplam, and after removal of branaplam. FIG. 26B depicts the expression of hIFNβ following transduction with AAV-CAG-X^on-hIFNβ normalized to the levels of expression obtained with the constitutive payload.

Structure (SMILES) | active concentration for induction of eGFP payload expression (X^on induction system) | induced eGFP expression level compared with the constitutive construct [1] | course of eGFP payload expression after induction [1] | detectable GFP and eGFP expression, earliest time post-induction (X^on splicing element; 24 hours post-transduction, imaging every 30 minutes) | course of GFP and eGFP signal post-induction (X^on splicing element; read up to 5 hours) | fLuc expression in OFF conditions (without branaplam for 24 hours) [2] | re-induction of fLuc expression achievable and detectable, number of cycles [2] | dose of branaplam needed to mediate reliable payload expression and cycle control ([2]; 3 concentrations, 24 hours ON / 24 hours OFF) | number of repeat ON/OFF cycles on the same transduced cells [3] | time to induced expression of hIFNβ after induction ([3]; ELISA of supernatant) | time until hIFNβ expression stopped after removal of branaplam ([3]; ELISA of supernatant)
CCc1nc(C)cn2nc(-c3cc(=O)n4cc(C5CCN(C)CC5)cc(C)c4n3)cc12.Cl [RG7800-HCl] | 20 µM | nearly the same levels of expression | continued to increase over the first 12 hours, followed by a slower increase to 24 hours |  |  |  |  |  |  |  | 
CCc1nc(C)cn2nc(-c3cc(=O)n4cc(C5CCN(C)CC5)cc(C)c4n3)cc12 [RG7800] | 20 µM |  |  |  |  |  |  |  |  |  | 
CC1(C)CC(Oc2ccc(-c3ccc(-c4cn[nH]c4)cc3O)nn2)CC(C)(C)N1 [branaplam] |  | nearly the same levels of expression | continued to increase over the first 12 hours, followed by a slower increase to 24 hours | 3 h | continuing to increase up to 5 hours post-induction | reliably reduced expression of the fLuc | at least 2 full induction cycles | ≥ 200 nM | up to 2 repeat cycles | ≤ 24 h | ≤ 24 h
